Source: US20100184807A1, “Methods to inhibit tumor cell growth by using proton pump inhibitors” (Bio-Quant, Inc., priority 2008, published 2010)

How the values were obtained:
Assay in all cases: MTT tumor cell growth assay
Format in all cases: cell-based
[1] = test system: H226 (lung cancer); details: H226 cells, lansoprazole 1-100 μM, 48 hours
Experimental: (§1) In one study, adherent cells were plated approximately 16-24 hours before the day of the experiment in 180 μl growth media. On the day of the experiment, the plated adherent cells were analyzed and counted and suspension cells were plated in 180 μl growth media. 10× lansoprazole compounds and vehicle was prepared. The 10× lansoprazole compounds were prepared by diluting lansoprazole to final concentrations of 100 μM, 30 μM, 10 μM, 3 μM, and 1 μM. A vehicle was prepared by preparing a solution of PBS, equivalent to the volume used for 10 μM lansoprazole wherein the 1× solution constitutes ˜0.06% PBS. 10 μl of the various 10× lansoprazole solutions and the vehicle were added to the cells. The cells were incubated at 37° C., 5% CO2 for 48 hours. The media was then aspirated. The cell suspension was then spun at 1500 RPM for 10 minutes. The media was slowly removed. 200 μl of MTT solution was added to each well with a concentration of 0.863 mg/ml MTT in the growth media. The cells were incubated at 37° C., 5% CO2 for 4 hours and the medium is then aspirated. The plate containing the cell suspension was then spun at 1500 RPM for 10 minutes. The media was slowly removed using a multichannel pipettor. 100 μl of DMSO was then added to each well. The cells were incubated at 37° C., 5% CO2 for 5 minutes and the absorbance was obtained at 560 nm using a Dynex Opsys MR plate reader. The cells used for this procedure were the following cell lines: IGROV1 (ovarian cancer); OVCAR 8 (ovarian cancer); ES-2 (ovarian cancer); CAOV3 (ovarian cancer); OVCAR5 (ovarian cancer); SUDHL4 (lymphoma); RPMI8226 (myeloma); RPMI6666 (Hodgkin's lymphoma); NC37 (lymphoma); GDM-1 (leukemia); MC/CAR (prostate cancer); DU-145 (prostate cancer), J45-01 (leukemia), MOLT3 (leukemia), HUT78, J-gamma-1 (leukemia), MCF7 […], COL0205 (colon cancer), HL60 CLONE 15 (leukemia), T47D (breast cancer), P116 (intestinal cancer), KU812 (leukemia), SW620 (colon cancer), MK92-M1 (lymphoma), MV-4-11 (leukemia), HS578T (breast cancer), HT29 (colon cancer), HCT 116 (colon cancer), CAKI-1 (kidney cancer), A549 (lung cancer), H460 (lung cancer), A3 (colon cancer), MDA-MB231 […], MALME 3M (melanoma), RXF393 (kidney cancer), RS4.11 (leukemia), PC3 (prostate cancer), OVCAR3 (ovarian cancer), MDA-MB435 (melanoma), HUT102 (lymphoma), HL60 (leukemia), CCRF-CEM (leukemia), HUT78 (lymphoma), 786-O (kidney cancer), ACHN (kidney cancer), A498 (kidney cancer), H226 (lung cancer), H522 (lung cancer), HOP92 (lung cancer), SNB 19 (brain cancer), OVCAR4 (ovarian cancer), H9 (lymphoma), UO-31 (kidney cancer), HH (lymphoma), DAUDI (leukemia), LOXIMVI (melanoma), NAMALWA (lymphoma), EKVX (lung cancer), DOHH2 (lymphoma), SNB75 (brain cancer), SKMEL28 (melanoma), SKMEL5 (melanoma), SKMEL2 (melanoma), M14 (melanoma), UACC 257 (melanoma), H332M (lung cancer), KM12 (colon cancer), HCC2998 (colon cancer), G401 (kidney cancer), RS1184 (lymphoma), MC116 (leukemia), MOLT4 (leukemia), JM1 (liver cancer), HOP-62 (lung cancer), HCT-15 (colon cancer), SF-539 (brain cancer), SF295 (brain cancer), ST486 (lymphoma), U251 (brain cancer), and UACC-62 (melanoma).

[2] = test system: A549 (lung cancer); details: A549 cells, lansoprazole 1-100 μM, 48 hours
Experimental: as §1

[3] = test system: UO-31 (kidney cancer); details: UO-31 cells, lansoprazole 1-100 μM, 48 hours
Experimental: as §1

[4] = test system: HCT-15 (colon cancer); details: HCT-15 cells, lansoprazole 1-100 μM, 48 hours
Experimental: as §1

[5] = test system: 786-O (kidney cancer); details: 786-O cells, lansoprazole 1-100 μM, 48 hours
Experimental: as §1

[6] = test system: SKMEL28 (melanoma); details: SKMEL28 cells, lansoprazole 1-100 μM, 48 hours
Experimental: as §1

[7] = test system: M14 (melanoma); details: M14 cells, lansoprazole 1-100 μM, 48 hours
Experimental: as §1

[8] = test system: ES-2 (ovarian cancer); details: ES-2 cells, lansoprazole 1-100 μM, 48 hours
Experimental: as §1

[9] = test system: SKMEL5 (melanoma); details: SKMEL5 cells, lansoprazole 1-100 μM, 48 hours
Experimental: as §1

[10] = test system: OVCAR4 (ovarian cancer); details: OVCAR4 cells, lansoprazole 1-100 μM, 48 hours
Experimental: as §1

[11] = test system: KU812 (leukemia); details: KU812 cells, lansoprazole 1-100 μM, 48 hours
Experimental: as §1

[12] = test system: MC116 (leukemia); details: MC116 cells, lansoprazole 1-100 μM, 48 hours
Experimental: as §1

[13] = test system: EKVX (lung cancer); details: EKVX cells, lansoprazole 1-100 μM, 48 hours
Experimental: as §1

[14] = test system: A3 (colon cancer); details: A3 cells, lansoprazole 1-100 μM, 48 hours
Experimental: as §1

[15] = test system: SW620 (colon cancer); details: SW620 cells, lansoprazole 1-100 μM, 48 hours
Experimental: as §1

[16] = test system: RXF393 (kidney cancer); details: RXF393 cells, lansoprazole 1-100 μM, 48 hours
Experimental: as §1

[17] = test system: PC3 (prostate cancer); details: PC3 cells, lansoprazole 1-100 μM, 48 hours
Experimental: as §1

[18] = test system: HUT102 (lymphoma); details: HUT102 cells, lansoprazole 1-100 μM, 48 hours
Experimental: as §1

Measured: tumor cell growth reduction

Cc1c(OCC(F)(F)F)ccnc1C[S+]([O-])c1nc2ccccc2[nH]1 (stereo not drawn) [lansoprazole]
significant tumor cell growth reduction: [1] | [2] | [3] | [4] | [5] | [6] | [7] | [8] | [9] | [10] | [11] | [12] | [13] | [14] | [15] | [16] | [17] | [18]
